Measured values from patent US20120329813A1 (Cardoz AB, priority 2009, published 2012).

Key:
CRP = details: subjects with prediabetes and elevated serum TNF-alpha; cited from earlier work
[1] = system: plasma C-reactive protein (CRP); experiment: Plasma CRP (hsCRP assay) in a patient with coronary artery disease treated with pemirolast potassium for two weeks; type: in vivo, human; details: CAD patient, 30 mg b.i.d., 6.4 mg/L on Day 1 before the first dose
Method: The study was approved by the Swedish Medical Products Agency, and performed by Berzelius Clinical Research Centre AB in Linköping, Sweden (the clinic).
Plasma CRP was determined with the high sensitivity CRP (hsCRP) assay described in Example 1 above.
(§1) The first dose (3×10 mg) was administered in the morning of Day 1 at the clinic, the second dose in the evening of Day 1 at home, and then 3×10 mg b.i.d. at home during Days 2 to 14. The last dose was administered in the evening of Day 14 at home.
(§2) The CAD patient was a person with a body height of 188 cm and a body weight of 103 kg. They were on treatment with enalapril 20 mg QD (once daily) for hypertension since 2006. After a myocardial infarction in 2009, they were started on treatment with simvastatin 40 mg QD, acetylsalicylic acid 75 mg QD, and metoprolol 100 mg QD (all three drugs started in June 2009). Since January 2010, the patient was also treated with felodipin 5 mg QD. During the two week treatment with pemirolast, the patient continued to take these medications.

plasma CRP = experiment: Plasma CRP (high sensitivity CRP assay) in healthy volunteers treated perorally with pemirolast potassium for five days; type: in vivo, human
Method: (§3) Plasma CRP was determined with a high sensitivity CRP assay (based on Near Infrared Particle Immunoassay rate methodology) on a UniCel DxC 800 instrument from Beckman Coulter (analysis performed at the Department of Clinical Chemistry, Karolinska University Laboratory, Stockholm, Sweden). The degree of mast cell activity was determined by measuring plasma tryptase with the ImmunoCAP Tryptase Fluoro-Immuno-Enzymatic Assay on a ImmunoCAP 250 instrument from Phadia (analysis performed at Clinical Immunology and Transfusion Medicine, Karolinska University Laboratory, Stockholm, Sweden).

plasma tryptase = experiment: Plasma tryptase (ImmunoCAP Tryptase Fluoro-Immuno-Enzymatic Assay) in healthy volunteers before and after pemirolast treatment; type: in vivo, human
Method: as §3

[2] = human, in vivo, po
Method: During days 2-4, each subject received one dose in the morning and one dose in the evening with a time interval of 12 hours between the daily doses. […] Other than the occasional use of nasal decongestants or paracetamol, the subjects were instructed not to use other drugs, alcohol or nicotine during the study.

[3] = Safety in the CAD patient during the two week pemirolast treatment; type: in vivo, human; details: 30 mg b.i.d. for two weeks
Method: as §1, §2

[4] = apparently healthy subjects with normal or low LDL cholesterol and elevated CRP; 1.9 years; cited from earlier work
hsCRP = details: patients with chronic obstructive pulmonary disease; cited from earlier work

Question: Which “effect on CRP” value (CRP) does the source give for `CN1CCC(=C2c3ccccc3CC(=O)c3sccc32)CC1` [ketotifen] here?
Answer: not to reduce CRP

Question: With `Cc1cccn2c(=O)c(-c3nnn[nH]3)cnc12` [pemirolast] as the compound, how does the CRP level ([1]; Day 8) read?
Answer: 4.0 mg/L

Question: And the CRP level ([1]; morning of Day 15)?
Answer: 1.8 mg/L

Question: And the “effect on CRP levels (FIG. 1)” value (plasma CRP; four subjects with baseline CRP >0.9 mg/L, 10, 30 or 50 mg day 1-5)?
Answer: markedly reduced

Question: And the “mean CRP level at the end of the pemirolast treatment” value (plasma CRP; four subjects with baseline plasma CRP >0.9 mg/L, 10, 30 or 50 mg per os b.i.d. day 1-5, 1.8 mg/L before treatment, p<0.05)?
Answer: 1.1 mg/L

Question: What about the “mean CRP level at the end of the pemirolast treatment” value (plasma CRP; remaining subjects with baseline CRP below 0.9 mg/L (n=13), 0.32 mg/L before treatment) of the same compound?
Answer: 0.38 mg/L

Question: What about the “effect on tryptase levels” value (plasma tryptase; four subjects with SLGI, plasma CRP >0.9 mg/L) of the same compound?
Answer: did not reduce

Question: And the “mean plasma tryptase level” value (plasma tryptase; four subjects with plasma CRP >0.9 mg/L, both before and after pemirolast treatment)?
Answer: 4.8 µg/L

Question: And the “AUC and Cmax versus dose” value [2]?
Answer: increased in a dose-proportional manner

Question: And the adverse events [3]?
Answer: did not report any adverse events

Question: For `CC(C)c1nc(N(C)S(C)(=O)=O)nc(-c2ccc(F)cc2)c1/C=C/[C@@H](O)C[C@@H](O)CC(=O)O` [rosuvastatin], which “effect on cardiovascular morbidity/mortality” value [4] is on record?
Answer: significantly reduces

Question: With `Cn1c(=O)c2[nH]cnc2n(C)c1=O` [theophylline] as the compound, how does the “effect on hsCRP” value (hsCRP) read?
Answer: not to reduce hsCRP
